From US7417048B2, “Aryl-substituted derivatives of cycloalkyl and branched chain alkyl carboxylic acids useful as antinociceptive drugs for peripheral targets” (priority 2003, dated 2008)

Assays:
[1] = system: lips and nasal mucous membranes; assay: Cooling effect of suspension applied to lips and nasal mucous membranes; type: in vivo, human; conditions: for cooling effect on the lips and on breathing sensation: 20 mg/ml suspension in saline-10% Tween 80, lips and nasal mucous membranes
From the text: Sulfadiazine is used as antibiotic for urinary tract infections and its silver salt is also used a topical antibiotic for the treatment of burn wounds. One peripheral antinociceptive compound of this discovery is derived from sulfadiazine as the -ZR″ group, and has the structure illustrated by Formula 3. […] The embodiment, coded as CPS-125, also activated the TRP-M8 coolness receptor, but not TRP-A1. […] Sulfonamides are used as topical and systemic antibiotics. Generally, these drugs are used at doses of 500 mg to gram quantities, and have relatively low toxic side effects except for the risks of renal crystalluria and drug hypersensitivity reactions. […] (St. Louis, Mo.) and coupled to p-menthoyl chloride, using the chemical synthesis described above. Each compound was then tested at 20 mg/ml on the lips and nasal mucous membranes. The compounds were added to sterile saline-10% Tween 80 mixture and stirred using a glass rod until the mixture was a homogeneous suspension. Using a clean glass rod, the suspension was first applied to the lips and nasal vestibule. After this trial, a dropper was used to apply the suspension into the nostrils, at a volume of 0.06 ml in 2 droplets per nostril.

mouse TRP-M8 receptor = biological target: T1, mouse TRP-M8 receptor (Mus musculus, UniProt Q8R4D5); assay: Voltage patch-clamp of HEK cells transiently transfected with mouse TRP-M8; type: cell-based; conditions: for activity relative to icilin (integrated inward current, icilin as 100): 1 μM, applied 10 sec, at least 4 cells
T1 construct: expressed in transfected cells; host or cells: human embryonic kidney cells (transient transfection)
Protocol: (§1) Human embryonic kidney cells were transiently transfected with the gene for the mouse TRP-M8 receptor. These cells were then voltage patch-clamped in a standard microscopic apparatus and the test solution electronically applied for 10 sec. The integrated areas of the inward current, measured in picoAmperes were then recorded. Icilin a standard cooling antinociceptive agent was used the positive control. Test substances were applied at 1 μM to at least 4 cells and the current recorded.

human TRP-M8 receptor = biological target: T2, human TRP-M8 receptor (Homo sapiens, UniProt Q7Z2W7); assay: Fura-2 calcium fluorescence in HEK cells permanently transfected with human TRP-M8; type: cell-based
T2 construct: expressed in transfected cells; host or cells: human embryonic kidney cells (permanent transfection)
Protocol: (§2) Human embryonic kidney cells were permanently transfected with the gene for the human TRP-M8 receptor. These cells were then incubated with a calcium fluorescence indicator (Fura-2) and incubated at either 29 or 37° C. These cells were then distributed into a 96-well fluorescence-plate image reader with automated drug dilution and computerized software for dose-response analysis. The influx of calcium upon drug stimulated was quantified in fluorescence units.

TRP-A1 = TRP-A1 (Homo sapiens, UniProt O75762); assay: TRP-A1 activation; type: cell-based
TRP-M8 coolness receptor = TRP-M8 coolness receptor (Homo sapiens, UniProt Q7Z2W7); assay: TRP-M8 coolness receptor activation (summary statement); type: cell-based
Protocol: as §1
as §2, with “units. […] The EC50 of CPS-125 in this test system was 6 μM and for the sulfodimethoxinyl- derivative, it was 60 μM.” for “units.”

[2] = Threshold cooling effect of p-menthane carboxylic acid esters; type: in vivo, human; conditions: p-menthane-COOR esters
From the text: Neurophysiological and Molecular Mechanisms of Drug Action. The procedures described previously are used in drug screening. Experimentally there are additional methods to identify peripheral antinociceptive pharmacophore-compounds on sensory nerve endings. TRP receptors are present in sensory neurons. At the molecular level, the interactions of these peripheral antinociceptive pharmacophore-compounds with various TRP receptors can be characterized. The methods for such receptor studies were described by Laus et al. (Prostate tumor nucleotide compositions and methods of detection thereof. U.S. Pat. No. 6,194,152 B1, Feb. 27, 2001), and by Bevan et al. (Vanilloid receptor-related nucleic acids and polypeptides. U.S. 2003/0157633 A1, Aug. 21, 2003) and Julius et al. (Methods of modulating cold sensory perception. U.S. 2003/0219834 A1, Nov. 27, 2003), herein incorporated by reference. In the patent by Laus et al. it is noted that activation of trp-p8 by specific agonists of this receptor may also be utilized for the treatment of prostate disorders such prostate neoplasia. The use of peripheral antinociceptive pharmacophore-compounds of this discovery for prostate disorders is also contemplated in the present patent application. Identification of Pharmacophore. […] Based on this information, the pharmacophore precursor was selected and then the -ZR″ moiety was placed on the molecule to form the peripheral antinociceptive pharmacophore compounds of this discovery with desired pharmacokinetics and adequate delivery of pharmacophore to the target.

[3] = cited from earlier work

T1 sequence (Q8R4D5 whole entry): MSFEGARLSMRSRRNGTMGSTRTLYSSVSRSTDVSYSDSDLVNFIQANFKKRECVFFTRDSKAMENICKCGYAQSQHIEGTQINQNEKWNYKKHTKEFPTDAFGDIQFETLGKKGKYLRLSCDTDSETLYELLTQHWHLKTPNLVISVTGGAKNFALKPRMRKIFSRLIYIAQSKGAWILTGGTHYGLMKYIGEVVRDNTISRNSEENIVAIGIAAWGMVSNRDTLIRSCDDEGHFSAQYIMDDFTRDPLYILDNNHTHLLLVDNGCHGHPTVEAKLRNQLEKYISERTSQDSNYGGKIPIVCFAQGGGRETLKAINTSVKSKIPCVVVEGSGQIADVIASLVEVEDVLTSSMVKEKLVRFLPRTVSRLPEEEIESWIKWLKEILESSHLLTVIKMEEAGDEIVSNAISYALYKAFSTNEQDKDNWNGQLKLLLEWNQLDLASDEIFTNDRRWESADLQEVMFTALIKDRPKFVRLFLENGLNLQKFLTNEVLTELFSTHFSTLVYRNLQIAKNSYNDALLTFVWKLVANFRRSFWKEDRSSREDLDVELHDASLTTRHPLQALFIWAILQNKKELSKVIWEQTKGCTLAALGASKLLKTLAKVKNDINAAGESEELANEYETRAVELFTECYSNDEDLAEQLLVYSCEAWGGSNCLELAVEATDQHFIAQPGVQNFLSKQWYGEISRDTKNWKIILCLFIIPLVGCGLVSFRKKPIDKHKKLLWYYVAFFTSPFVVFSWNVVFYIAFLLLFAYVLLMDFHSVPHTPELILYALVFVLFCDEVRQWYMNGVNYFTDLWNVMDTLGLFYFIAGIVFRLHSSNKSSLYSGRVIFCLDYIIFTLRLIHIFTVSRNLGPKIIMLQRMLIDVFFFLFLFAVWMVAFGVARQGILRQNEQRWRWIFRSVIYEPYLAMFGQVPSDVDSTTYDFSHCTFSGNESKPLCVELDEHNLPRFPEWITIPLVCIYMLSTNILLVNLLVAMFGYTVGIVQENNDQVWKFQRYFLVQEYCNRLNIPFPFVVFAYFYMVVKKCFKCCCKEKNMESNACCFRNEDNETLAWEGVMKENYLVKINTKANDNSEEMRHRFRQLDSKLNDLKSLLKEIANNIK
T2 sequence (Q7Z2W7 whole entry): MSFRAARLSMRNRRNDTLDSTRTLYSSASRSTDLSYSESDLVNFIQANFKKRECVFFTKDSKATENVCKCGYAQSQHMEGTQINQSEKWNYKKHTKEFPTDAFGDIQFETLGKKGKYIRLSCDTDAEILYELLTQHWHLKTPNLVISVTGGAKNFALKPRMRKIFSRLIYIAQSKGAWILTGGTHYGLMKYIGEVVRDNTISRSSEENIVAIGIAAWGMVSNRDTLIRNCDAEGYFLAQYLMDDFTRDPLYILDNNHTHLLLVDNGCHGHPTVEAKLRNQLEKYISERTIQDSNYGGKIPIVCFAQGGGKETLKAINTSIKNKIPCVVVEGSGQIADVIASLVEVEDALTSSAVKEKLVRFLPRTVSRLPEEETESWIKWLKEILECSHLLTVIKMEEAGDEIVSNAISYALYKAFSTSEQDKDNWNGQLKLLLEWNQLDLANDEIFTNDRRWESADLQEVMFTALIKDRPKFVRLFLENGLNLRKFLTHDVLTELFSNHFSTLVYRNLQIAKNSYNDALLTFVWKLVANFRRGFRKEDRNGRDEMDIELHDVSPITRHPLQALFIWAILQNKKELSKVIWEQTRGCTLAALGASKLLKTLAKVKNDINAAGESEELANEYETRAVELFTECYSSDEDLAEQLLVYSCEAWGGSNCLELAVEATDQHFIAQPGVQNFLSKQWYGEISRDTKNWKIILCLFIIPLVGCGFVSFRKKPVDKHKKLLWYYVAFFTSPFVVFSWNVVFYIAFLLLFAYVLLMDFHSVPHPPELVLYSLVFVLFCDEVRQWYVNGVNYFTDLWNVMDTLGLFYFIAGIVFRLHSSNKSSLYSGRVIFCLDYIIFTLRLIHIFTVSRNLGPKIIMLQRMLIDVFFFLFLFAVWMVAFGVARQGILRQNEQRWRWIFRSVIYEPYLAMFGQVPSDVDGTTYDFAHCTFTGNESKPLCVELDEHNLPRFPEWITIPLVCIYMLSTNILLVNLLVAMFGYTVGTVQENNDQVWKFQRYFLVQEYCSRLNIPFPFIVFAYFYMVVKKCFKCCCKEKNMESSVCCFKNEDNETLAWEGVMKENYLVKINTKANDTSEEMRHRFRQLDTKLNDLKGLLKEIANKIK
TRP-M8 coolness receptor, sequence (Q7Z2W7 whole entry): as above
TRP-A1, sequence (O75762 whole entry, species assumed): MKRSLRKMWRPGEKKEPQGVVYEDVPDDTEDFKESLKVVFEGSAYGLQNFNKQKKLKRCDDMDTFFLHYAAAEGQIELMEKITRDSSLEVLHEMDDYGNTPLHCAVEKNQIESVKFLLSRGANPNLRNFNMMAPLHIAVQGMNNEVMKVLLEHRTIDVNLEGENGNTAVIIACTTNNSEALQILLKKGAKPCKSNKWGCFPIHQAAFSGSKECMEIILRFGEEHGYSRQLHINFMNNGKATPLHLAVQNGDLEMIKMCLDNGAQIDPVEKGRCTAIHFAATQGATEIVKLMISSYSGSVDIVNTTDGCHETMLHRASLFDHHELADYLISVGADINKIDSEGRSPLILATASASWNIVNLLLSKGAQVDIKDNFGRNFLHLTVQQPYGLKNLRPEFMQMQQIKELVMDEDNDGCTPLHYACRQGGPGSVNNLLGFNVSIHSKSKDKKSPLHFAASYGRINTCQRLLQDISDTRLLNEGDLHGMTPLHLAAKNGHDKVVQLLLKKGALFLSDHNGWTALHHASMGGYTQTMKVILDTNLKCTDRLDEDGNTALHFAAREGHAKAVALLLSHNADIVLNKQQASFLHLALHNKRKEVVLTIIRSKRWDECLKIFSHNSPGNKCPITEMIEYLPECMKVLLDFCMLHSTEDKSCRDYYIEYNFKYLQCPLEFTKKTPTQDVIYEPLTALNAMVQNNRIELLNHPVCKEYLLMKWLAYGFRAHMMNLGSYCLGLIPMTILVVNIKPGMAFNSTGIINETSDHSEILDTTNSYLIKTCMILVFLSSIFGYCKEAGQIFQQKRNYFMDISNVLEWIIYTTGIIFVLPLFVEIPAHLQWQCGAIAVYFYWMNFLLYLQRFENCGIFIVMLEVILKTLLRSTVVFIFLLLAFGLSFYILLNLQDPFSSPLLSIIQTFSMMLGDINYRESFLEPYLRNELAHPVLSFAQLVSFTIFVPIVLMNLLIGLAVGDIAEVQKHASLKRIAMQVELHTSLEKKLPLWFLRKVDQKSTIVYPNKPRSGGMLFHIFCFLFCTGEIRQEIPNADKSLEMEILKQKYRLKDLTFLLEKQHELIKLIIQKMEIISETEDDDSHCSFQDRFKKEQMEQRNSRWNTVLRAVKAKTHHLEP

Molecule	Threshold Cooling Effect [2] [µg]	other results
CC1CCC(C(C)C)C(C(=O)Nc2ccc(S(=O)(=O)Nc3ncccn3)cc2)C1 (centres unmarked) [CPS-125, 2-Isopropyl-5-methyl-cyclohexanecarboxylic acid [4-(pyrimidin-2-ylsulfamoyl)-phenyl]-amide]		duration of cooling effect ([1]; 1 mg per nostril, 0.06 ml in 2 droplets per nostril): up to 3 hr; cooling effect on the lips and on breathing sensation [1]: gentle, cooling refreshing effect; activity relative to icilin (integrated inward current, icilin as 100) (mouse TRP-M8 receptor): 41%; EC50 (mouse TRP-M8 receptor; patch-clamp dose-response, read-out: EC50 for full activation of the receptor): 2 µM; ΔFmax (maximum fluorescence increase at the maximum concentration tested) (human TRP-M8 receptor; Fura-2 fluorescence units): 14,000 units; activation of TRP-A1 (TRP-A1): not; activation of TRP-M8 coolness receptor (TRP-M8 coolness receptor): activated
COc1cc(NS(=O)(=O)c2ccc(NC(=O)C3CC(C)CCC3C(C)C)cc2)nc(OC)n1 (centres unmarked) [sulfadimethoxine analog]		cooling effect on the lips and on breathing sensation [1]: slightly active; EC50 (human TRP-M8 receptor; Fura-2, 29 or 37° C., 96-well plate reader, read-out: EC50 (median effective concentration, calcium influx)): 60 µM
OCCCCO [butan-1,4-diol]	12	
Nc1ccc(C(=O)NS(=O)(=O)c2ccc(N)cc2)cc1 [N1-p-aminobenzoylsulfanilamide]		pKa [3]: 5.20
Nc1ccc(S(=O)(=O)Nc2nccs2)cc1 [sulfathiazole]		pKa [3]: 7.12
COc1ccc(NS(=O)(=O)c2ccc(NC(=O)C3CC(C)CCC3C(C)C)cc2)nn1 (centres unmarked) [sulfamethoxypyridazine analog]		cooling effect on the lips and on breathing sensation [1]: moderate activities
Nc1ccc(S(=O)(=O)Nc2nncs2)cc1 [S-1,3,4-thiadiazole]		pKa [3]: 4.77
CC(O)C(C)O (centres unmarked) [butan-2,3-diol]	3	
CC(C)(O)C(=O)O [2-hydroxy-2-methylpropanoic acid]	20	
OCCCO [propan-1,3-diol]	7	
CC1CCC(C(C)C)C(C(=O)Nc2ccc(S(N)(=O)=O)cc2)C1 (centres unmarked) [CPS-126]		cooling effect on the lips and on breathing sensation [1]: inactive; activity relative to icilin (integrated inward current, icilin as 100) (mouse TRP-M8 receptor): 2%
CCOC(=O)C(C)O (centres unmarked) [ethyl lactate]	50	
OCCO [ethylene glycol]	1.5	
Cc1cc(O)cc(O)c1 [3,5-dihydroxytoluene]	15	
OCC(O)CO [glycerol]	1.2	
CC(=O)OCCOC(=O)C1CC(C)CCC1C(C)C (centres unmarked) [2-acetoxoyethanol]	33	
CC(O)C(=O)O (centres unmarked) [lactic acid]	8	
COc1cnc(NS(=O)(=O)c2ccc(NC(=O)C3CC(C)CCC3C(C)C)cc2)nc1 (centres unmarked) [sulfameter analog]		cooling effect on the lips and on breathing sensation [1]: moderate activities
OC1CCCCC1O (centres unmarked) [cyclohexan-1,2-diol]	4	
CC1CCC(C(C)C)C(C(=O)OCC(=O)O)C1 (centres unmarked) [glycollic acid]	15	
Nc1ccc(S(=O)(=O)Nc2ccccn2)cc1 [sulfapyridine]		pKa [3]: 8.43
CC1(C)OCC(CO)O1 (centres unmarked)	11	
OC[C@@H](O)[C@@H](O)[C@H](O)[C@@H](O)CO [sorbitol]	50	
OCCOCCOCCO [triethylene glycol]	5	
hexylene glycol	8	
OCC#CCO [butyn-1,4-diol]	6	
Nc1ccc(S(=O)(=O)NC(=O)CCl)cc1 [N1-chloroacetylsulfanilamide]		pKa [3]: 3.79
Cc1noc(NS(=O)(=O)c2ccc(NC(=O)C3CC(C)CCC3C(C)C)cc2)c1C (centres unmarked) [sulfisoxazole analog]		cooling effect on the lips and on breathing sensation [1]: slightly active
OCCOCCO [diethylene glycol]	1	
CC(O)CO (centres unmarked) [propylene glycol]	1.4	
